Results as given in publication PMC8284440, “Toward New Transmission-Blocking Combination Therapies: Pharmacokinetics of 10-Amino-Artemisinins and 11-Aza-Artemisinin and Comparison with Dihydroartemisinin and Artemether” (Antimicrobial Agents and Chemotherapy, 2021).

Assays:
[1] = Metabolic stability in pooled human liver microsomes; design: CLint scaled: dose or concentration left out as unconfirmed; settings: for CLint scaled / half-life at 0.4 mM: human
Protocol: (§1) (ii) Metabolic stability in liver microsomes. The metabolic stability assay was performed in duplicate using 96-deepwell plates. Each compound (0.4 mM) was incubated individually in mouse, rat, and pooled human liver microsomes (0.4 mg/ml) at 37°C in the presence and absence of the cofactor NADPH (1 mM). An aliquot was taken at 0, 5, 10, 30, and 60 min, and the reaction was quenched by adding 300 μl of ice-cold acetonitrile containing the internal standard carbamazepine (0.0236 μg/ml) ([88]). The test compounds in the supernatant were analyzed by means of LC-MS/MS as described in “Sample analysis” below. The normalized data for each sample were used to calculate the in vitro half-life, intrinsic clearance rate, and hepatic extraction ratio from the results of this assay using the following equations ([88]).Equation 1. Normalized area. (1) Normalized area=(Peak area of sample at time point/Peak area of internal standard) Equation 2. Percent parent remaining. (2) % Parent=Normalized peak area of sample at time point/Normalized peak area of sample at t=0×100 Equation 3. Calculated t1/2. (3) t1/2=−0.693/λ where λ is the slope of the ln (% parent remaining) versus time curve of the compound.Equation 4. CLint. (4) CLint=[0.693/t1/2(min)]×[Volume of incubation (μl)/Microsomal protein (μg)] Equation 5. Hepatic extraction ratio. (5) EH=fu×CLint/QH + fu×CLint
(§2) Sample extraction. […] The organic layer was then transferred and evaporated under a gentle stream of nitrogen at room temperature for 30 min. The dried samples were reconstituted in mobile phase, and a 5 μl sample was injected for LC-MS/MS analysis. The only exception was the arylurea 10, for which no liquid-liquid extraction was conducted; instead, the 200 μl acetonitrile solution was evaporated under a gentle stream of nitrogen at room temperature. The dried sample was reconstituted in the mobile phase, and a 5 μl sample was injected for LC-MS/MS analysis. The plasma samples for each compound from the in vivo studies were extracted by mixing 350 μl ethyl acetate with 15 μl of plasma sample and 35 μl of universal buffer containing internal standard at pH 8. The samples were vortexed for 1 min and centrifuged for 5 min, and the organic layer was then transferred and evaporated under a gentle stream of nitrogen at room temperature for 30 min. The dried samples were each reconstituted in the mobile phase, and a 5 μl sample was injected for LC-MS/MS analysis.
(§3) LC-MS/MS analysis. For all the artemisinins except the arylurea 10, gradient chromatography was performed on a Phenomenex (Torrance, CA, USA) Luna PFP(2) analytical column (100 Å, 5 μm, 2 by 50 mm) and an AB Sciex API 5500 mass spectrometer which was operated at unit resolution in the multiple reaction monitoring (MRM) mode. The HPLC method used was a gradient method with 5 mM ammonium acetate and 0.1% acetic acid in water as the aqueous phase and a mixture of acetonitrile and methanol (1:1 vol/vol) containing 5% of the aqueous phase as the organic phase ([89]). The arylurea 10 was analyzed using a Phenomenex Gemini NX-C18 (5 μm, 2.1 mm by 50 mm) column with an AB Sciex 3200 QTRAP mass spectrometer operated at unit resolution in the MRM mode. The HPLC method used was a gradient method with 5 mM ammonium acetate and 0.1% acetic acid in water as the aqueous phase and a mixture of acetonitrile and methanol (1:1 vol/vol). The transitions of the molecular ions were monitored, as listed in Table S8 in the supporting information. The calibration range was between 0.002 μg/ml and 6.250 μg/ml. Data acquisition and evaluation were performed using Analyst 1.6.2 software (Applied Biosystems, Foster City, CA, USA). The formation of the putative metabolite DHA from the amino-artemisinins and the metabolite M1 of artemisone were evaluated in these mice PK studies; the MRM transitions of DHA and M1 (Table S8) were thus included in the LC-MS/MS assays.

[2] = Metabolic stability in mouse liver microsomes; assay type: in vitro ADME; design: half-life / CLint scaled: dose or concentration left out as unconfirmed; settings: for CLint scaled: calculated, read-out: Intrinsic liver clearance rate CLint Mouse; for half-life: read-out: Microsomal half-life t1/2 Mouse
Protocol: as §1, §2, §3

[3] = Pharmacokinetics in mice, oral administration; assay type: in vivo, male C57/BL6 mice; settings: for bioavailability / Cmax / Tmax: male, C57/BL6, mouse, plasma; for bioavailability: 50 mg/kg; for bioavailability / F: oral bioavailability, p.o. 50 mg/kg vs i.v. 10 mg/kg; for Cmax / Tmax / AUC: p.o. 50 mg/kg, parent; for AUC: 0 h to last
Protocol: (i) Animals. Healthy male C57/BL6 mice each weighing approximately 25 g were used. The mice maintained at the University of Cape Town animal facility were housed in 27 by 21 by 18 cm cages, under controlled environmental conditions at 22 ± 2°C and a 12-h light/dark cycle. Humidity was monitored and ranged between 55 and 70%. Food and water were available ad libitum. Mice were acclimatized to their environment for 7 days before experiments were initiated.
(ii) Oral drug administration. Each of artemether, the amino-artemisinins 5 to 10, and 11-aza-artemisinin 11 (12.5 mg) was dissolved in 0.2 ml DMSO, to which 1.8 ml 0.5% (wt/vol) HPMC in water was then added. Compounds were administered orally via gavage at a dose of 50 mg/kg (n = 3). Dosing volumes were calculated based on the weight of each mouse in the respective group. The dosing volumes ranged between 160 μl and 200 μl, ensuring that the dose remained at 50 mg/kg. Blood samples for amino-artemisinins 5 to 8 and 10 were collected via tail-bleeding predose and at 0.08, 0.25, 0.5, 1, 2, and 4 h. Blood samples for the phenylurea 9 and 11-aza-artemisinin 11 were collected at 0.08, 0.5, 1, 2, 4, 8, and 24 h postdose. Samples were placed in 0.5 ml lithium heparin micro vials to prevent blood coagulation. […] The samples were immediately centrifuged at 5,590 × g for 5 min and the plasma was transferred to new microvials. The plasma samples were stored at −80°C.
as §2
as §3, with “μg/ml.” for “μg/ml. Data acquisition and evaluation were performed using Analyst 1.6.2 software (Applied Biosystems, Foster City, CA, USA). The formation of the putative metabolite DHA from the amino-artemisinins and the metabolite M1 of artemisone were evaluated in these mice PK studies; the MRM transitions of DHA and M1 (Table S8) were thus included in the LC-MS/MS assays.”

[4] = metabolite formed from p.o. artemiside 5, 50 mg/kg

AUC of metabolite ([3]; metabolite formed from p.o. artemisone 6, 50 mg/kg) | SMILES | Hepatic extraction ratio EH Human ([1]; human liver microsomes) | CLint scaled ([1]; pooled liver microsomes) | half-life at 0.4 mM ([1]; pooled liver microsomes) | Hepatic extraction ratio EH Mouse [2] | CLint scaled [2] | half-life [2] | bioavailability ([3]; po) | Cmax ([3]; po) | Tmax ([3]; po) | AUC [3] | AUC of metabolite [3, 4] | F [3] | half-life at 0.4 mM ([1]; microsomes) | AUC of metabolite ([3]; metabolite formed from p.o. artemether 3, 50 mg/kg) | Stability in HLM ([1]; human liver microsomes) | bioavailability ([3]; oral)
– | C[C@H]1[C@H](N2CCSCC2)O[C@@H]2O[C@@]3(C)CC[C@H]4[C@H](C)CC[C@@H]1[C@@]24OO3 [Artemiside 5, artemiside] | 1.0 | 451 mL/min/kg | < 10 min | 0.9 | 551 mL/min/kg | 12.4 min | 1 ± 0.2% | 100 ± 10 nM | 60 ± 54 min | 9.5 ± 2.5 min/µmol/L | – | – | – | – | – | –
– | C[C@H]1[C@H](N2CCS(=O)(=O)CC2)O[C@@H]2O[C@@]3(C)CC[C@H]4[C@H](C)CC[C@@H]1[C@@]24OO3 [Artemisone 6, artemisone] | 0.9 | 243 mL/min/kg | < 10 min | 0.9 | 805 mL/min/kg | < 10 min | 32% | 8000 ± 800 nM | 18 ± 6 min | 922.7 ± 348 min/µmol/L | 101.5 ± 49 min/µmol/L | 34 ± 7.5% | – | – | – | –
– | CO[C@H]1O[C@@H]2O[C@@]3(C)CC[C@H]4[C@H](C)CC[C@@H]([C@H]1C)[C@@]24OO3 [Artemether 3, artemether] | 0.9 | 172 mL/min/kg | – | 0.8 | 393 mL/min/kg | 17.4 min | 2 ± 0.6% | 600 ± 200 nM | 6 min | 32.3 ± 20 min/µmol/L | – | – | 12.5 min | – | – | –
173.3 ± 51.7 min/µmol/L | C[C@H]1[C@H](N2C=CS(=O)(=O)CC2)O[C@@H]2O[C@@]3(C)CC[C@H]4[C@H](C)CC[C@@H]1[C@@]24OO3 [M1 12] | – | – | > 150 min | 0.3 | 37.4 mL/min/kg | > 150 min | – | – | – | – | 20.8 ± 8 min/µmol/L | – | – | – | – | –
– | C[C@H]1[C@@H](O)O[C@@H]2O[C@@]3(C)CC[C@H]4[C@H](C)CC[C@@H]1[C@@]24OO3 [DHA 2, dihydroartemisinin] | 0.7 | 41.5 mL/min/kg | 51.7 min | 0.4 | 50.2 mL/min/kg | 136 min | – | – | – | – | – | – | – | 77 ± 12 min/µmol/L | – | –
– | C[C@H]1[C@H](N2CCN(C(=O)Nc3ccc(F)cc3)CC2)O[C@@H]2O[C@@]3(C)CC[C@H]4[C@H](C)CC[C@@H]1[C@@]24OO3 [Arylurea 10] | 0.6 | 531 mL/min/kg | < 10 min | 0.6 | 2480 mL/min/kg | < 10 min | 17.5 ± 3.1% | 2300 ± 300 nM | 30 min | 276.5 ± 48.4 min/µmol/L | – | – | – | – | – | –
– | C[C@@H]1CC[C@H]2[C@@H](C)C(=O)N[C@@H]3O[C@@]4(C)CC[C@@H]1[C@]32OO4 [11-Aza-artemisinin 11, 11-aza-artemisinin] | – | – | 60 min | 0.3 | 36.4 mL/min/kg | > 150 min | 14% | 2600 ± 10 nM | 30 min | 154.9 ± 10 min/µmol/L | – | 7.15 ± 0.3% | – | – | stable throughout the experiment | 7%
– | C[C@H]1[C@H](NS(N)(=O)=O)O[C@@H]2O[C@@]3(C)CC[C@H]4[C@H](C)CC[C@@H]1[C@@]24OO3 [Sulfamide 7] | 0.2 | 5.6 mL/min/kg | > 150 min | 0.3 | 41.3 mL/min/kg | > 150 min | 59% | 21700 ± 1200 nM | 36 ± 12 min | 2,562.3 ± 499 min/μmol/liter | – | 59.3 ± 11.6% | – | – | – | –
